Legend:
[1] = system: PDGF-BB expression in human vascular endothelial cells HUVEC; assay: Evaluation of PDGF-B production accelerating action in vascular endothelial cells (ELISA and quantitative RT-PCR); assay type: cell-based; details: retinoic acid at 1 μm or 10 μm vs DMSO solvent control, cultured 2 days, PDGF-BB in culture supernatant by ELISA and PDGF-B mRNA by quantitative PCR (FIG. 8)
Method: Evaluation of PDGF-B Production Accelerating Action in
Vascular Endothelial Cells
Human vascular endothelial cells HUVEC were sub-cultured in EGM-2 medium (Sanko Junyaku Co., Ltd.), and the fourth generation cells were suspended in Humedia-EG2 medium not containing VEGF-A (Kurabo Industries Ltd.), followed by disseminating in a collage-coated 24-well multiplate (Asahi Glass Co., Ltd.) at a ratio of 20,000 cells and culturing for 3 to 5 days at 37° C. until the cells reached confluence in the presence of 5% CO2. After replacing the medium with Humedia-EG2 medium (Kurabo Industries Ltd.) containing retinoic acid at 1 μm or 10 μm or DMSO used as a solvent control, culturing was further continued for 2 days. Following completion of culturing, the culture supernatant was recovered and PDGF-BB was quantified in accordance with the protocol provided using Human PDGF-BB Quantikine ELISA Kit (R&D Systems Inc.). […] One-step quantitative RT-PCR was then carried out on the PDGF-B gene for each sample using an equal volume of mRNA as template, using the primer pair of SEQ ID NO: 9 and SEQ ID NO: 10, and using QuantiFast SYBR Green RT-PCR Kit (Qiagen Inc.) for the reaction reagent and LightCycler (Roche Diagnostics GmbH) for the reaction apparatus. […]

[2] = system: adipose-derived mesenchymal stem cells MSC; assay: Evaluation of migration ability of mesenchymal stem cells (cell insert assay); assay type: cell-based; details: 5 ng/ml to 30 ng/ml in StemPro serum-free MSC medium; overnight; in comparison with PDGF-AA and PDGF-AB (FIG. 2)
Method: Evaluation of Migration Ability
Commercially available adipose-derived mesenchymal stem cells MSC were purchased and sub-cultured in MesenPro mesenchymal stem cell medium (Invitrogen Corp.). Then, PDGF-AA, PDGF-AB or PDGF-BB (R&D Systems Inc.) was added to StemPro serum-free MSC medium (Invitrogen Corp.) in 24-well culture plates at a concentration of 5 ng/ml to 30 ng/ml, and fibronectin-coated cell inserts (BD Bioscience Inc.) were placed thereon followed by seeding 50,000 MSC suspended in StemPro medium. After culturing overnight in a CO2 incubator, the culture fluid was removed by aspiration. Thereafter, the cell inserts were immersed for 10 minutes in Hoechist 33258-PBS solution, and the nuclei of cells adhered to the cell insert were stained. After washing with PBS, the backs of the cell inserts were observed under a fluorescence microscope and images were captured. Five random images of each cell insert were captured followed by counting the number of cells that transferred to the cell insert.

| Molecule | acceleration of expression of PDGF-BB [1] | acceleration of expression of PDGF-BB ([1]; listed as retinoic acid) | migration ability of mesenchymal stem cells [2] |
| --- | --- | --- | --- |
| CC1=C(/C=C/C(C)=C/C=C/C(C)=C/C(=O)O)C(C)(C)CCC1 [tretinoin, all-trans retinoic acid] | concentration-dependent activity | accelerates expression of PDGF-BB | – |
| PDGF-BB: platelet-derived growth factor-BB protein (R&D Systems Inc.), homodimer of the PDGF B chain (protein, UniProt P01127 82-190, looked up, homodimer, platelet-derived growth factor-BB protein (R&D Systems Inc.), homodimer of the PDGF B chain) Platelet-derived growth …: SLGSLTIAEPAMIAECKTRTEVFEISRRLIDRTNANFLVWPPCVEVQRCSGCCNNRNVQCRPTQVQLRPVQVRKIEIVRKKPIFKKATVTLEDHLACKCETVAAARPVT | – | – | significantly enhance the migration ability of stem cells |

From patent US10017817B2, “Skin activation by acceleration of PDGF-BB activity” (Shiseido Company, Ltd., priority 2010, dated 2018)
